As usually defined, the IC50 is the point on the concentration scale where inhibition reaches its midpoint. Read a low IC50 as inhibition by little substance.

Among the data in US20240083897A1, “GCN2 MODULATING COMPOUNDS AND USES THEREOF” (HiberCell, Inc., priority 2021, published 2024) are IC50 values, retold here.

This assay deals with GCN2 (Homo sapiens (Human), UniProt Q9P2K8). Put plainly: TR-FRET biochemical assay for inhibition of GCN2.
Where [1] appears, read: GCN2 2 nM, 100 nM GFP-eIF2a, 150 μM ATP, TR-FRET.

Read-outs that look alike come from different tables or passages of the source.

GCN2, sequence (Q9P2K8 whole entry): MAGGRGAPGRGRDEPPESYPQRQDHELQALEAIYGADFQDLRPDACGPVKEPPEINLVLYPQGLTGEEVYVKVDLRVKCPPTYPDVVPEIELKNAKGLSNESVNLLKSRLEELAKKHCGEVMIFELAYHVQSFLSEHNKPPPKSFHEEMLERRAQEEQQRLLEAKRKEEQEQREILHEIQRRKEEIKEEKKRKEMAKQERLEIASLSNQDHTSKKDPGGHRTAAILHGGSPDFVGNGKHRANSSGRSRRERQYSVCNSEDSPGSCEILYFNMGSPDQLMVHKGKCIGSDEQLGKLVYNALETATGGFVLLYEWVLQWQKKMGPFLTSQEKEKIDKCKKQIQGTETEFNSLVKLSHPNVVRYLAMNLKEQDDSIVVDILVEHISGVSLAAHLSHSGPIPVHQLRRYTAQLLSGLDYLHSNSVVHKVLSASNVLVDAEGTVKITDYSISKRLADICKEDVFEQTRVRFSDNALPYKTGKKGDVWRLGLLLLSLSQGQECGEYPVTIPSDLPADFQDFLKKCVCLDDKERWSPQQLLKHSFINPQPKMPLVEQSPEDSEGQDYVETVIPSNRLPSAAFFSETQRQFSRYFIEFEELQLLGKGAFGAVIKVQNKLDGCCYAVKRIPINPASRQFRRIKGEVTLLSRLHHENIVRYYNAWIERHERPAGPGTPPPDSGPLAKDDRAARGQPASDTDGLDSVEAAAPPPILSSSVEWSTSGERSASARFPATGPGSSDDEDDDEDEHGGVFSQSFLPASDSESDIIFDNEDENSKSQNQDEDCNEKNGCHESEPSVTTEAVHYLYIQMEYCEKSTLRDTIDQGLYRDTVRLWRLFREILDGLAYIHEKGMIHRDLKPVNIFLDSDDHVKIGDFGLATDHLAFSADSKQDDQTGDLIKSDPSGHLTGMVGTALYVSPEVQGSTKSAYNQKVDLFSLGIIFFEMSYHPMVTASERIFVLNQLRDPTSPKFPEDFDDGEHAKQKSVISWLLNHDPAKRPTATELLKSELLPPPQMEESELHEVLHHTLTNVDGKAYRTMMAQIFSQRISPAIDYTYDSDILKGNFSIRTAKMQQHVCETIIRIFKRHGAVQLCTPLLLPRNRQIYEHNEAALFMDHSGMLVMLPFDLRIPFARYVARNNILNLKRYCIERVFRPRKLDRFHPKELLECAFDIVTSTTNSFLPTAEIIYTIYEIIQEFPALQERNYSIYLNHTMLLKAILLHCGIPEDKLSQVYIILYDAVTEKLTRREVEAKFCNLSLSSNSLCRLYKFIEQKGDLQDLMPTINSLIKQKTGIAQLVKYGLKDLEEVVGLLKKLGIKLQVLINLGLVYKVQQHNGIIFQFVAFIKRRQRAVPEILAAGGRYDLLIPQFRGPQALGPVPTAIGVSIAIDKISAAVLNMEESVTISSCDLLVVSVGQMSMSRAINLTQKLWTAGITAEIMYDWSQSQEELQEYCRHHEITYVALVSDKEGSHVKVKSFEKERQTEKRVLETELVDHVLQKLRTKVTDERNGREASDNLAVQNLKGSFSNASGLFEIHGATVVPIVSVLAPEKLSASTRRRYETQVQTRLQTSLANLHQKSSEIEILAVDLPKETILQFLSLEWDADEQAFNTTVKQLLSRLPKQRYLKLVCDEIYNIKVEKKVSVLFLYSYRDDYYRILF

Compound `COc1ncc(F)cc1S(=O)(=O)Nc1ccc(F)c(-c2ccn3c(-c4ncc[nH]4)ncc3c2)c1F` [Compound 36, N-[2,4-difluoro-3-[3-(1H-imidazol-2-yl)imidazo[1,5-a]pyridin-7-yl]phenyl]-5-fluoro-2-methoxypyridine-3-sulfonamide] displayed a half-maximal inhibitory concentration (IC50) under setting [1] of less than 50 nM.

Consider `CNC(=O)c1ncn2cc(-c3c(F)ccc(NS(=O)(=O)c4cc(Cl)cnc4OCC(F)(F)F)c3F)ncc12` [Compound 182, 6-[3-[5-chloro-2-(2,2,2-trifluoroethoxy)pyridine-3-sulfonamido]-2,6-difluorophenyl]-N-methylimidazo[1,5-a]pyrazine-1-carboxamide], for which the half-inhibitory concentration (IC50) was 500 to 1000 nM.

Consider `COc1ncc(C#N)cc1S(=O)(=O)Nc1ccc(F)c(-c2ccn3c(-c4ncc[nH]4)ncc3c2)c1F` [Compound 40, 5-cyano-N-[2,4-difluoro-3-[3-(1H-imidazol-2-yl)imidazo[1,5-a]pyridin-7-yl]phenyl]-2-methoxypyridine-3-sulfonamide], for which the IC50 under setting [1] is less than 50 nM.

As for `COc1ncc(C#N)cc1S(=O)(=O)Nc1ccc(F)c(-c2ccc3c(-c4ccno4)ncn3c2)c1F` [Compound 119, 5-cyano-N-[2,4-difluoro-3-[1-(1,2-oxazol-5-yl)imidazo[1,5-a]pyridin-6-yl]phenyl]-2-methoxypyridine-3-sulfonamide], the IC50 under setting [1] was less than 50 nM.

As to `CNC(=O)c1ncn2c(F)c(-c3c(F)ccc(NS(=O)(=O)c4cc(F)cnc4OC)c3F)ncc12` [Compound 170, 6-[2,6-difluoro-3-(5-fluoro-2-methoxypyridine-3-sulfonamido)phenyl]-5-fluoro-N-methylimidazo[1,5-a]pyrazine-1-carboxamide], the concentration for half-maximal inhibition (IC50) fell in the range of 50 to 500 nM.

As for `COc1ncc(Cl)cc1S(=O)(=O)Nc1ccc(F)c(-c2cn3cnc(C(=O)Nc4cnoc4)c3cn2)c1F` [Compound 174, 6-[3-(5-chloro-2-methoxypyridine-3-sulfonamido)-2,6-difluorophenyl]-N-(1,2-oxazol-4-yl)imidazo[1,5-a]pyrazine-1-carboxamide], the IC50 under setting [1] is less than 50 nM.

`CNC(=O)c1ncn2c1CC[C@H](c1c(F)ccc(NS(=O)(=O)c3cc(F)cnc3OC)c1Cl)C2` [Compound 152-1, (6R)-6-[2-chloro-6-fluoro-3-(5-fluoro-2-methoxypyridine-3-sulfonamido)phenyl]-N-methyl-5H,6H,7H,8H-imidazo[1,5-a]pyridine-1-carboxamide] displayed a half-maximal inhibitory concentration (IC50) of 50 to 500 nM.

`Cc1nnc(-c2ncn3c2CC[C@@H](c2c(F)ccc(NS(=O)(=O)c4cc(F)cnc4C)c2F)C3)[nH]1` [Compound 134-1, N-[2,4-difluoro-3-[(6S)-1-(5-methyl-4H-1,2,4-triazol-3-yl)-5H,6H,7H,8H-imidazo[1,5-a]pyridin-6-yl]phenyl]-5-fluoro-2-methylpyridine-3-sulfonamide] came in with an IC50 under setting [1] of less than 50 nM.

Compound `COc1ncc(Cl)cc1S(=O)(=O)Nc1ccc(F)c(-c2ccc3c(-c4nc(Cl)c[nH]4)ncn3c2F)c1F` [Compound 116, 5-chloro-N-[3-[1-(4-chloro-1H-imidazol-2-yl)-5-fluoroimidazo[1,5-a]pyridin-6-yl]-2,4-difluorophenyl]-2-methoxypyridine-3-sulfonamide] gave an IC50 under setting [1] of less than 50 nM.

Take `COc1ncc(Cl)cc1S(=O)(=O)Nc1ccc(F)c(-c2ccc3c(-n4ccnn4)ncn3c2)c1F` [Compound 55-1, 5-chloro-N-[2,4-difluoro-3-[1-(1,2,3-triazol-1-yl)imidazo[1,5-a]pyridin-6-yl]phenyl]-2-methoxypyridine-3-sulfonamide]: the 50% inhibitory concentration (IC50) under setting [1] was less than 50 nM.

In turn, `CNC(=O)c1ncn2cc(-c3c(Cl)ccc(NS(=O)(=O)c4cc(Cl)cnc4OC)c3F)ncc12` [Compound 141, 6-(6-chloro-3-((5-chloro-2-methoxypyridine)-3-sulfonamido)-2-fluorophenyl)-N-methylimidazo[1,5-a]pyrazine-1-carboxamide] had an IC50 under setting [1] of less than 50 nM.

Under setting [1], `COc1ncc(Cl)cc1S(=O)(=O)Nc1ccc(F)c(-c2ccc3c(-c4ncc[nH]4)ncn3n2)c1F` [Compound 85, 5-chloro-N-[2,4-difluoro-3-[5-(1H-imidazol-2-yl)imidazo[1,5-b]pyridazin-2-yl]phenyl]-2-methoxypyridine-3-sulfonamide] showed a half-inhibitory concentration (IC50) of less than 50 nM.

The compound `COc1ncc(Cl)cc1S(=O)(=O)Nc1ccc(F)c(-c2cn3cnc(C(=O)NCCN4CCOCC4)c3cn2)c1F` [Compound 175, 6-[3-(5-chloro-2-methoxypyridine-3-sulfonamido)-2,6-difluorophenyl]-N-[2-(morpholin-4-yl)ethyl]imidazo[1,5-a]pyrazine-1-carboxamide] registered an IC50 under setting [1] of less than 50 nM.

The compound `COc1ncc(Cl)cc1S(=O)(=O)Nc1ccc(F)c(-c2cn3cnc(C(=O)NCC(C)C)c3cn2)c1F` [Compound 158, 6-[3-(5-chloro-2-methoxypyridine-3-sulfonamido)-2,6-difluorophenyl]-N-(2-methylpropyl)imidazo[1,5-a]pyrazine-1-carboxamide] displayed a half-inhibitory concentration (IC50) under setting [1] of less than 50 nM.

`CNC(=O)c1ncn2cc(-c3c(F)ccc(NS(=O)(=O)c4cc(F)cnc4C)c3F)ncc12` [Compound 91, 6-[2,6-difluoro-3-(5-fluoro-2-methylpyridine-3-sulfonamido)phenyl]-N-methylimidazo[1,5-a]pyrazine-1-carboxamide] displayed a 50% inhibitory concentration (IC50) of 50 to 500 nM.

Take `Cc1ncc(Cl)cc1S(=O)(=O)Nc1ccc(F)c([C@@H]2CCc3c(-c4ncc[nH]4)ncn3C2)c1F` (single isomer, unassigned) [Compound 84-2]: the IC50 under setting [1] was less than 50 nM.

In turn, `COc1ncc(C#N)cc1S(=O)(=O)Nc1ccc(F)c(-c2ccc3c(-c4nnc[nH]4)ncn3c2)c1F` [Compound 71, 5-cyano-N-[2,4-difluoro-3-[1-(4H-1,2,4-triazol-3-yl)imidazo[1,5-a]pyridin-6-yl]phenyl]-2-methoxypyridine-3-sulfonamide] showed an IC50 under setting [1] of less than 50 nM.

As to `COc1ncc(Cl)cc1S(=O)(=O)Nc1ccc(F)c(-c2ccc3c(-c4nc5c([nH]4)CCCC5)ncn3c2)c1F` [Compound 147, 5-chloro-N-(2,4-difluoro-3-(1-(4,5,6,7-tetrahydro-1H-benzo[d]imidazol-2-yl)imidazo[1,5-a]pyridin-6-yl)phenyl)-2-methoxypyridine-3-sulfonamide], the concentration for half-maximal inhibition (IC50) under setting [1] is less than 50 nM.

As for `CNC(=O)c1ncn2c1CN(C)[C@H](c1c(F)ccc(NS(=O)(=O)c3cc(Cl)cnc3OC)c1F)C2` (single isomer, unassigned) [Compound 33-1], under setting [1], the IC50 is more than 1000 nM.

Compound `COc1ncc(Cl)cc1S(=O)(=O)Nc1ccc(F)c(-c2ccc3c(CO)ncn3c2)c1F` [Compound 94, 5-chloro-N-(2,4-difluoro-3-(1-(hydroxymethyl)imidazo[1,5-a]pyridin-6-yl)phenyl)-2-methoxypyridine-3-sulfonamide] returned an IC50 of 500 to 1000 nM.

Consider `Cc1ncc(F)cc1S(=O)(=O)Nc1ccc(F)c(-c2ccc3c(-c4nnc[nH]4)ncn3c2)c1F` [Compound 72, N-[2,4-difluoro-3-[1-(4H-1,2,4-triazol-3-yl)imidazo[1,5-a]pyridin-6-yl]phenyl]-5-fluoro-2-methylpyridine-3-sulfonamide], for which the half-maximal inhibitory concentration (IC50) under setting [1] was less than 50 nM.

Regarding `Cc1ncc(Cl)cc1S(=O)(=O)Nc1ccc(F)c(-c2ccc3c(-c4ccn(C)n4)ncn3c2)c1F` [Compound 62, 5-chloro-N-[2,4-difluoro-3-[1-(1-methylpyrazol-3-yl)imidazo[1,5-a]pyridin-6-yl]phenyl]-2-methylpyridine-3-sulfonamide], under setting [1], the IC50 is less than 50 nM.

As for `CCNC(=O)c1ncn2cc(-c3c(F)ccc(NS(=O)(=O)c4cc(Cl)cnc4OC)c3F)ncc12` [Compound 165, 6-[3-(5-chloro-2-methoxypyridine-3-sulfonamido)-2,6-difluorophenyl]-N-ethylimidazo[1,5-a]pyrazine-1-carboxamide], under setting [1], the IC50 is less than 50 nM.

In the case of `COc1ncc(Cl)cc1S(=O)(=O)Nc1ccc(F)c(-c2cn3cnc(C(=O)NCCCN(C)C)c3cn2)c1F` [Compound 172, 6-[3-(5-chloro-2-methoxypyridine-3-sulfonamido)-2,6-difluorophenyl]-N-[3-(dimethylamino)propyl]imidazo[1,5-a]pyrazine-1-carboxamide], the IC50 lay in the range of 50 to 500 nM.

`COc1ncc(Cl)cc1S(=O)(=O)Nc1ccc(F)c(-c2ccc3c(-c4nnc(C5CC5)[nH]4)ncn3c2)c1F` [Compound 87, 5-chloro-N-[3-[1-(5-cyclopropyl-4H-1,2,4-triazol-3-yl)imidazo[1,5-a]pyridin-6-yl]-2,4-difluorophenyl]-2-methoxypyridine-3-sulfonamide] showed an IC50 under setting [1] of less than 50 nM.

In turn, `CNC(=O)c1ncn2cc(-c3c(F)ccc(NS(=O)(=O)c4cc(Cl)cnc4OC)c3C#N)ncc12` [Compound 117, 6-[3-(5-chloro-2-methoxypyridine-3-sulfonamido)-2-cyano-6-fluorophenyl]-N-methylimidazo[1,5-a]pyrazine-1-carboxamide] yielded a concentration for half-maximal inhibition (IC50) of 50 to 500 nM.

The compound `CNC(=O)c1ncn2cc(-c3c(F)ccc(NS(=O)(=O)c4cc(F)cnc4OC)c3F)ncc12` [Compound 90, 6-[2,6-difluoro-3-(5-fluoro-2-methoxypyridine-3-sulfonamido)phenyl]-N-methylimidazo[1,5-a]pyrazine-1-carboxamide] came in with a concentration for half-maximal inhibition (IC50) of 50 to 500 nM.

The compound `CNC(=O)c1ncn2cc(-c3c(F)ccc(NS(=O)(=O)c4cc(Cl)cnc4OC)c3F)c(=O)n(C)c12` [Compound 22, 3-[3-(5-chloro-2-methoxypyridine-3-sulfonamido)-2,6-difluorophenyl]-N,1-dimethyl-2-oxoimidazo[1,5-a]pyrimidine-8-carboxamide] displayed an IC50 of 50 to 500 nM.

Compound `CNC(=O)c1ncn2c1CC[C@@H](c1c(F)ccc(NS(=O)(=O)c3cc(F)cnc3OC)c1Cl)C2` [Compound 152-2, (6S)-6-[2-chloro-6-fluoro-3-(5-fluoro-2-methoxypyridine-3-sulfonamido)phenyl]-N-methyl-5H,6H,7H,8H-imidazo[1,5-a]pyridine-1-carboxamide] displayed a 50% inhibitory concentration (IC50) of 50 to 500 nM.

In turn, `CNC(=O)c1ncn2cc(-c3c(F)ccc(NS(=O)(=O)c4cc(Cl)cnc4OC)c3C)ccc12` [Compound 122, 6-[3-(5-chloro-2-methoxypyridine-3-sulfonamido)-6-fluoro-2-methylphenyl]-N-methylimidazo[1,5-a]pyridine-1-carboxamide] had an IC50 of 50 to 500 nM.
